Literature values in US20130281394A1, “Chemosensory Receptor Ligand-Based Therapies” (ELCELYX THERAPEUTICS, INC., priority 2010, published 2013).
Like-named read-outs stand apart in the source and are kept apart here. One block for each compound: values may come before it.

How the values were obtained:
sweet receptor = target: T1, sweet receptor (Homo sapiens, UniProt Q7RTX0+Q8TE23); details: relative sweetness on a weight comparison basis to sucrose (= 1.0); ranges: varied with the concentration of sucrose
T1 sequence (Q8TE23 20-839): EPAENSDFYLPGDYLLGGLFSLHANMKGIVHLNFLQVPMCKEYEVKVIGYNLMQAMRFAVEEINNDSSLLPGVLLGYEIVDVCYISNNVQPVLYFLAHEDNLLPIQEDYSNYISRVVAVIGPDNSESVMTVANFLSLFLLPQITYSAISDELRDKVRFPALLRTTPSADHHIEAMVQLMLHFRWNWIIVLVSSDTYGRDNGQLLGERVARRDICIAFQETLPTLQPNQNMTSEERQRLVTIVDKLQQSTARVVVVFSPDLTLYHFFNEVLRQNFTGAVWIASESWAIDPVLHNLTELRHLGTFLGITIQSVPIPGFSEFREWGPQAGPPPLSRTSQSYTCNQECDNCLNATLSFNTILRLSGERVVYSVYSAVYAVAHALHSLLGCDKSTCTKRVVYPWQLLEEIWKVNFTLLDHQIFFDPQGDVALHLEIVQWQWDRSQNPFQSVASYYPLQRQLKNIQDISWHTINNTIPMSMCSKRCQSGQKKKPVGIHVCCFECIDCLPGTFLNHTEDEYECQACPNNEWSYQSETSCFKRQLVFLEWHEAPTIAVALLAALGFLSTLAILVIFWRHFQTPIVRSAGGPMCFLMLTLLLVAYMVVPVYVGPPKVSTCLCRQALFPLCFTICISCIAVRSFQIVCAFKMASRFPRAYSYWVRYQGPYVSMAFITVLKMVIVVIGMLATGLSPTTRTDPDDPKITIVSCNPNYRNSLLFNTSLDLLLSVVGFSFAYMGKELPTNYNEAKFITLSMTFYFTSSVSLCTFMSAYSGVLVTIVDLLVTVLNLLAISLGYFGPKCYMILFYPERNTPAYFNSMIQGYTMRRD
T1 sequence (Q7RTX0 21-852): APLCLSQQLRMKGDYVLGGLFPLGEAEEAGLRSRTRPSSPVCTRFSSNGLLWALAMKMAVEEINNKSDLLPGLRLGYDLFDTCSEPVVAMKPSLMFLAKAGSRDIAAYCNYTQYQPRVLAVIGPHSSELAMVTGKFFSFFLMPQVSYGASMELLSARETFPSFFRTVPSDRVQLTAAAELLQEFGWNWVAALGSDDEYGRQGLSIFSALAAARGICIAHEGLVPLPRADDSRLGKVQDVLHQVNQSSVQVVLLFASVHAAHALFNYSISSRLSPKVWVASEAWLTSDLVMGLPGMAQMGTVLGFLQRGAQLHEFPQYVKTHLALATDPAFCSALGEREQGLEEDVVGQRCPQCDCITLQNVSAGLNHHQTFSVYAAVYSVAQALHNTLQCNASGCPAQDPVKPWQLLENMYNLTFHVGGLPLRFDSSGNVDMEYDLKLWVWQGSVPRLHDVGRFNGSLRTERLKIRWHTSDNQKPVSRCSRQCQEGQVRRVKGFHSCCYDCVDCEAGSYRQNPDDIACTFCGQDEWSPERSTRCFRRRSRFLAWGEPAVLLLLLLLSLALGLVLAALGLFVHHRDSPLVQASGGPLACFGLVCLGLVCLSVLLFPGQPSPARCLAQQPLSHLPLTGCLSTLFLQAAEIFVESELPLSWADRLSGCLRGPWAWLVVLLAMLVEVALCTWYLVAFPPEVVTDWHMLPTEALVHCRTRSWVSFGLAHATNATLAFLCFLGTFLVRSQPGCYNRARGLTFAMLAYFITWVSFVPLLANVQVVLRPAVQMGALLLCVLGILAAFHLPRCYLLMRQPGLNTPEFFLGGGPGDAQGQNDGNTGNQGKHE

gut hormones = details: humans
GLP-1 [1] = details: humans
GLP-1 [2] = details: rats, with a DPP-IV inhibitor
[3] = rats
[4] = in vivo
gut hormone release [5] = details: rats
gut hormone release [6] = details: instillation into the duodenum of humans
[7] = patients with jejunostomy

Compound: C=C1C[C@@]23CC[C@H]4[C@@](C)(CCC[C@@]4(C)C(=O)O[C@@H]4O[C@H](CO)[C@@H](O)[C@H](O)[C@H]4O)[C@@H]2CC[C@]1(O[C@@H]1O[C@H](CO)[C@@H](O)[C@H](O[C@@H]2O[C@H](CO)[C@@H](O)[C@H](O)[C@H]2O)[C@H]1O[C@@H]1O[C@H](CO)[C@@H](O)[C@H](O)[C@H]1O)C3 [Rebaudioside A]
Sweetness/potency (sweet receptor): 242
alterations of gut hormones in the circulation (gut hormones): no alterations

Compound: OCCN1C[C@H](O)[C@@H](O)[C@H](O)[C@H]1CO [miglitol]
post-prandial GLP-1 levels (GLP-1 [1]): increase
increase in GLP-1 (GLP-1 [2]): synergistic

Compound: N[C@@H](CCC(=O)O)C(=O)O [glutamate]
abdominal fat [3]: reduced
weight gain [3]: decreased

Compound: glucagon-like peptide-1 [GLP-1]
portal:arterial gradient [4]: > 2:1

Compound: OC[C@H]1O[C@H](O[C@]2(CCl)O[C@H](CCl)[C@@H](O)[C@@H]2O)[C@H](O)[C@@H](O)[C@H]1Cl [sucralose]
gut hormone release (gut hormone release [5]): no effect
gut hormone release (gut hormone release [6]): no effect

Compound: C=CCC(=NOS(=O)(=O)O)S[C@@H]1O[C@H](CO)[C@@H](O)[C@H](O)[C@H]1O (stereo in doubt) [Sinigrin]
Taste quality (bitter receptor): Bitter

Compound: GLP-2: gut hormone administered to patients with jejunostomy (HADGSFSDEMNTILDNLAARDFINWLIQTKITD; Glucagon-like peptide 2; UniProt P01275 146-178, looked up)
gastric emptying of solids and liquids [7]: prolong
intestinal absorption of energy and intestinal wet weight absorption [7]: improve

Compound: Oc1cc(O)c2c(c1)O[C@H](c1cc(O)c(O)c(O)c1)[C@H](O)C2 [Epigallocatechin]
Taste quality (bitter receptor): Bitter with sweet

Taste quality (bitter receptor): Bitter
Compound: O=c1c(O)c(-c2ccc(O)c(O)c2)oc2cc(O)cc(O)c12 [Quercetin]

Taste quality (bitter receptor): Bitter or astringent
Compound: O=c1c(-c2ccc(O)cc2)coc2cc(O)cc(O)c12 [Genistein]

Compound: O=c1c(-c2ccc(O)cc2)coc2cc(O[C@@H]3O[C@H](CO)[C@@H](O)[C@H](O)[C@H]3O)ccc12 [Daidzin]
Taste quality (bitter receptor): Astringent

Taste quality (bitter receptor): Bitter
Compound: CC1(C)O[C@H]2CC(=O)OC[C@]23[C@H]2CC[C@@]4(C)[C@H](c5ccoc5)OC(=O)[C@H]5O[C@]54[C@]2(C)C(=O)C[C@@H]13 [Limonin]

Taste quality (bitter receptor): Bitter
Compound: C[C@@H]1O[C@@H](O[C@H]2[C@H](Oc3cc(O)c4c(c3)O[C@H](c3ccc(O)cc3)CC4=O)O[C@H](CO)[C@@H](O)[C@@H]2O)[C@H](O)[C@H](O)[C@H]1O [Naringin]
